Results: PubChem BioAssay AID651672 (The Scripps Research Institute Molecular Screening Center, 2012)
Calls of active or inactive are those of the source. No rule for the calls is given here.

Target: Perilipin-1 (Homo sapiens) (UniProt O60240)
Assay: inhibitors of ABHD5-PLIN1 binding, dose response, counter-screen for ABHD5-PLIN5 interaction inhibitor project, biochemical, luminescence (AID 651672);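 also: split Gaussia luciferase complementation between ABHD5 and PLIN1 fusion fragments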

Chain of Perilipin-1 (Homo sapiens) (O60240 whole entry, looked up, the tested form may be a part): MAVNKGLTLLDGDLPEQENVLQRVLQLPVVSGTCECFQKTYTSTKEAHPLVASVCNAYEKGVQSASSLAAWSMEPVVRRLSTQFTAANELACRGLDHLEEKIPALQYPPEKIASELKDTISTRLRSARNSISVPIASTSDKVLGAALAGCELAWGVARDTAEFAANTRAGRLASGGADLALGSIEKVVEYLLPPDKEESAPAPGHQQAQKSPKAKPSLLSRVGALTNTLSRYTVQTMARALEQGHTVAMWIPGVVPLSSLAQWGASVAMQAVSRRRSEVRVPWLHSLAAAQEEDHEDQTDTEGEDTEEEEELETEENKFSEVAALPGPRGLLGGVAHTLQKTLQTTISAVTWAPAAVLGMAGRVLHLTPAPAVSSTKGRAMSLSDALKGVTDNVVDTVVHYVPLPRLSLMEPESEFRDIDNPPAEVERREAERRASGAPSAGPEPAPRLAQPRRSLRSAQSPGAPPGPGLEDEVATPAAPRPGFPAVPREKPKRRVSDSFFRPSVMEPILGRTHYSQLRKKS

SMILES	IC50
CC(C)(C)NC(=O)C(c1ccc(C(F)(F)F)cc1)n1c(=O)c(-c2ccco2)nc2ccccc21 (stereo not given)	2690 nM
CCOC(=O)c1c(C)oc2c1c(CN1CCN(CCO)CC1)c(O)c1ccccc12	1810 nM
CN(C)CCCNC(=O)c1ccc(-c2nc(-c3ccc(Cl)cc3)cs2)cc1	inactive
COc1ccc(/C=C\C(=O)CC(O)(c2ccccc2)C(F)(F)F)cc1 (stereo not given)	2680 nM
Cc1cccc(C)c1OCc1cn(CC(=O)c2ccc(O)cc2)nn1	2980 nM
CSc1nnc(NC(=O)c2nc(S(=O)(=O)Cc3cccc(C)c3)ncc2Cl)s1	2700 nM
COc1ccccc1C=CC(=O)C=Cc1ccccc1OC	5340 nM
CN1C(=O)/C(=C/C=C/c2ccco2)C(=O)NC1=S	5880 nM
Oc1c(C(c2ccccc2)N2CCCCC2)ccc2ccccc12 (stereo not given)	1010 nM
CCCCCNC(=O)C(c1ccc(C(F)(F)F)cc1)n1c(=O)c(-c2ccco2)nc2ccccc21 (stereo not given)	2910 nM
CN(C)CCCN(C(=O)CCc1ccccc1)c1nc2ccc(Br)cc2s1	8530 nM
COc1ccc(NC(=O)C(c2ccccc2)n2c(=O)c(-c3ccco3)nc3ccccc32)cc1 (stereo not given)	8470 nM
COc1ccc(-c2cc(N)n(S(=O)(=O)c3c(F)c(F)c(F)c(F)c3F)n2)cc1OC	9950 nM
O=C(C[n+]1cccc(CNC(=O)c2ccc(OC(F)F)cc2)c1)Nc1cccc(C(F)(F)F)c1	inactive
O=C(Cn1c(=O)n(Cc2ccco2)c(=O)c2c3c(sc21)CCCC3)Nc1ccccc1	8680 nM
CC(=O)Cc1cc(O)c2ccccc2c1OC(=O)c1ccc(Br)cc1	1600 nM
CC1=CC(C)(C)Nc2ccc(OC(=O)C(C)N3C(=O)c4ccccc4C3=O)cc21 (stereo not given)	1820 nM
CC1CCN(S(=O)(=O)c2ccc(NC(=O)Cc3cccs3)cc2)CC1	7020 nM

SMILES	IC50
O=C1C(=O)c2c(C(=O)c3ccccc3)coc2-c2ccccc21	4970 nM
Cc1nc(-c2ccccc2)sc1C(=O)/C=C/c1ccccc1	2770 nM
CCC(C(=O)OCCN(CC)CC)c1ccccc1 (stereo not given)	2530 nM
COCCNC(=O)/C(C#N)=C/c1cccc(/C=C(\C#N)C(=O)NCCOC)c1	804 nM
O=C(NCc1ccccc1)C(c1ccc(C(F)(F)F)cc1)n1c(=O)c(-c2ccco2)nc2ccccc21 (stereo not given)	1590 nM
NC(=O)C(C(=O)/C=C/c1ccc(Cl)cc1)=C1SCCS1	inactive
Cc1ccc(CS(=O)(=O)c2ncc(Cl)c(C(=O)Nc3nnc(C(C)C)s3)n2)cc1	1710 nM
CCN(CC)CCOCCOC(=O)C1(c2ccccc2)CCCC1	1870 nM
Cc1nc2c(o1)CCc1ccccc1C2N1CCN(C)CC1 (stereo not given)	inactive
NC(=O)CCN1CCN(CCOC2Cc3cc(Cl)ccc3Sc3ccccc32)CC1 (stereo not given)	inactive
CCN1/C(=C/C=C/c2oc3ccc(-c4ccccc4)cc3[n+]2CC)Oc2ccc(-c3ccccc3)cc21	1240 nM
Cc1oc2c(c1C(=O)c1ccc(Cl)cc1)C(=O)C(=O)c1ccccc1-2	3990 nM
CC(=O)C1=C(c2cccc([N+](=O)[O-])c2)N(C(C)=O)n2c(C)nnc2S1	2470 nM
N#Cc1ncc(Cc2ccccc2)nc1C#N	inactive
CN(C)CCOc1ccc(-c2c(-c3ccccc3)sc3ccccc23)cc1	inactive
CC(C)(C)NC(=O)C(c1ccc(-c2ccccc2)cc1)n1c(=O)c(-c2ccco2)nc2ccccc21 (stereo not given)	1670 nM
CCCCOC(=O)Nc1cc(C(=O)OC)ccc1C(=O)OC	6030 nM
